Tested on: mdx mouse EDL muscle
Assay: Phosphoprotein array analysis (Cell Signaling Phospho Antibody Array)
Description: mdx mouse EDL muscle was prepared for ex vivo analysis as described (n = 5). Muscles were incubated for 1 hour with DMSO or EDG-5506 (5 μM) and then flash frozen in liquid nitrogen. Tissue preparation and analysis were performed as recommended by the manufacturer (Cell Signaling Phospho Antibody Array, Full Moon Biosystems).

O=c1ccc(-c2cnc(OCC(F)(F)F)nc2)nn1Cc1cncc(F)c1 [EDG-5506]
Data Normalized to Median Signal: BAX (Phospho-Thr167): 0.77 | Fold Change T/C: 4E-BP1 (Ab-45) (5 μM, 1 hour): 0.88 | Fold Change T/C: 4E-BP1 (Phospho-Thr45) (5 μM, 1 hour): 0.74 | Fold Change T/C: 14-3-3 theta/tau (Phospho-Ser232) (5 μM, 1 hour): 1.01 | Fold Change T/C: 14-3-3 zeta/delta (Ab-232) (5 μM, 1 hour): 1.03 | Fold Change T/C: ACC1 (Ab-80) (5 μM, 1 hour): 0.96 | Fold Change T/C: ACC1 (Phospho-Ser80) (5 μM, 1 hour): 0.92 | Fold Change T/C: AKT (5 μM, 1 hour): 0.96 | Fold Change T/C: AKT1 (Ab-308) (5 μM, 1 hour): 1.11 | Fold Change T/C: AKT1S1 (Ab-246) (5 μM, 1 hour): 1.04 | Fold Change T/C: AMPKbeta1 (Ab-182) (5 μM, 1 hour): 0.89 | Fold Change T/C: AMPKbeta1 (Phospho-Ser182) (5 μM, 1 hour): 0.80 | Fold Change T/C: ASK1 (Ab-966) (5 μM, 1 hour): 0.99 | Fold Change T/C: ATF2 (Ab-62/44) (5 μM, 1 hour): 2.53 | Fold Change T/C: Actin Pan(a/b/g) (Ab-55/53) (5 μM, 1 hour): 0.97 | Fold Change T/C: B-RAF (Ab-598) (5 μM, 1 hour): 1.09 | Fold Change T/C: B-RAF (Phospho-Ser446) (5 μM, 1 hour): 1.05 | Fold Change T/C: BAX (Phospho-Thr167) (5 μM, 1 hour): 0.78 | Fold Change T/C: BCL-XL (Ab-47) (5 μM, 1 hour): 1.77 | Fold Change T/C: BCL-XL (Phospho-Ser62) (5 μM, 1 hour): 1.02 | Fold Change T/C: BID (Ab-78) (5 μM, 1 hour): 1.23 | Fold Change T/C: BLNK (Ab-96) (5 μM, 1 hour): 0.97 | Fold Change T/C: BLNK (Phospho-Tyr96) (5 μM, 1 hour): 0.51 | Fold Change T/C: BRCA1 (Ab-1524) (5 μM, 1 hour): 1.39 | Fold Change T/C: Bax (5 μM, 1 hour): 0.89 | Fold Change T/C: Beclin-1 (5 μM, 1 hour): 1.49 | Fold Change T/C: Beta actin (5 μM, 1 hour): 0.82 | Fold Change T/C: CBL (Phospho-Tyr700) (5 μM, 1 hour): 0.88 | Fold Change T/C: CDC25C (Ab-216) (5 μM, 1 hour): 1.97 | Fold Change T/C: CDK1/CDC2 (Phospho-Tyr15) (5 μM, 1 hour): 0.83 | Fold Change T/C: CREB (Ab-133) (5 μM, 1 hour): 0.71 | Fold Change T/C: CREB (Phospho-Ser133) (5 μM, 1 hour): 0.74 | Fold Change T/C: CaMK2-beta/gamma/delta (Ab-287) (5 μM, 1 hour): 1.42 | Fold Change T/C: CaMK2-beta/gamma/delta (Phospho-Thr287) (5 μM, 1 hour): 0.92 | Fold Change T/C: CaMK2A (Phospho-Thr286) (5 μM, 1 hour): 0.86 | Fold Change T/C: Calmodulin (Ab-79/81) (5 μM, 1 hour): 1.02 | Fold Change T/C: Caspase 8 (Phospho-Ser347) (5 μM, 1 hour): 1.08 | Fold Change T/C: Caspase 9 (Ab-196) (5 μM, 1 hour): 2.31 | Fold Change T/C: Caspase 9 (Phospho-Ser196) (5 μM, 1 hour): 0.94 | Fold Change T/C: Catalase (Ab-385) (5 μM, 1 hour): 1.34 | Fold Change T/C: Catenin beta (Ab-37) (5 μM, 1 hour): 1.21 | Fold Change T/C: Catenin beta (Phospho-Thr41/Ser45) (5 μM, 1 hour): 0.83 | Fold Change T/C: Chk2 (Ab-68) (5 μM, 1 hour): 1.17 | Fold Change T/C: Chk2 (Phospho-Thr68) (5 μM, 1 hour): 0.51 | Fold Change T/C: CrkII (Ab-221) (5 μM, 1 hour): 1.59 | Fold Change T/C: Cyclin D1 (Ab-286) (5 μM, 1 hour): 1.10 | Fold Change T/C: Cyclin D1 (Phospho-Thr286) (5 μM, 1 hour): 1.18 | Fold Change T/C: Cyclin E1 (Ab-77) (5 μM, 1 hour): 1.24 | Fold Change T/C: Cyclin E1 (Phospho-Thr77) (5 μM, 1 hour): 1.02 | Fold Change T/C: DARPP-32 (Ab-34) (5 μM, 1 hour): 1.01 | Fold Change T/C: DARPP-32 (Phospho-Thr34) (5 μM, 1 hour): 0.91 | Fold Change T/C: EEF2 (Ab-56) (5 μM, 1 hour): 0.84 | Fold Change T/C: EEF2 (Phospho-Thr56) (5 μM, 1 hour): 1.12 | Fold Change T/C: EGFR (Ab-1172) (5 μM, 1 hour): 0.86 | Fold Change T/C: Elk1 (Ab-389) (5 μM, 1 hour): 1.22 | Fold Change T/C: FADD (Phospho-Ser194) (5 μM, 1 hour): 1.53 | Fold Change T/C: FAK (Ab-910) (5 μM, 1 hour): 1.76 | Fold Change T/C: FAK (Phospho-Ser910) (5 μM, 1 hour): 1.09 | Fold Change T/C: FGFR1 (Phospho-Tyr654) (5 μM, 1 hour): 1.35 | Fold Change T/C: FKHRL1/FOXO3A (Ab-253) (5 μM, 1 hour): 1.74 | Fold Change T/C: FOXO1/3/4-pan (Ab-24/32) (5 μM, 1 hour): 1.40 | Fold Change T/C: GAPDH (5 μM, 1 hour): 0.75 | Fold Change T/C: GRK2 (Ab-29) (5 μM, 1 hour): 1.92 | Fold Change T/C: GRK2 (Phospho-Ser29) (5 μM, 1 hour): 1.26 | Fold Change T/C: GSK3 alpha/beta (Phospho-Tyr216/279) (5 μM, 1 hour): 0.97 | Fold Change T/C: GSK3 beta (5 μM, 1 hour): 1.12 | Fold Change T/C: Gab1 (Ab-627) (5 μM, 1 hour): 1.06 | Fold Change T/C: Gab2 (Phospho-Tyr643) (5 μM, 1 hour): 1.59 | Fold Change T/C: HDAC1 (Ab-421) (5 μM, 1 hour): 0.79 | Fold Change T/C: HDAC1 (Phospho-Ser421) (5 μM, 1 hour): 1.25 | Fold Change T/C: HDAC2 (Ab-394) (5 μM, 1 hour): 1.03 | Fold Change T/C: HDAC2 (Phospho-Ser394) (5 μM, 1 hour): 0.90 | Fold Change T/C: HER2 (Ab-1221/1222) (5 μM, 1 hour): 1.19 | Fold Change T/C: HSP27 (Ab-82) (5 μM, 1 hour): 0.82 | Fold Change T/C: HSP90B (Phospho-Ser226) (5 μM, 1 hour): 1.00 | Fold Change T/C: IKK alpha/beta (Ab-180/181) (5 μM, 1 hour): 0.91 | Fold Change T/C: IKK-beta (Ab-199) (5 μM, 1 hour): 1.62 | Fold Change T/C: IKK-beta (Phospho-Tyr188) (5 μM, 1 hour): 1.01 | Fold Change T/C: IKK-beta (Phospho-Tyr199) (5 μM, 1 hour): 0.84 | Fold Change T/C: IKK-gamma (Ab-31) (5 μM, 1 hour): 0.96 | Fold Change T/C: IKK-gamma (Phospho-Ser31) (5 μM, 1 hour): 0.98 | Fold Change T/C: IL-4R/CD124 (Ab-497) (5 μM, 1 hour): 0.93 | Fold Change T/C: IL-4R/CD124 (Phospho-Tyr497) (5 μM, 1 hour): 0.93 | Fold Change T/C: IL-10R-alpha (Ab-496) (5 μM, 1 hour): 1.30 | Fold Change T/C: IL-10R-alpha (Phospho-Tyr496) (5 μM, 1 hour): 0.85 | Fold Change T/C: IRS-1 (Ab-312) (5 μM, 1 hour): 1.03 | Fold Change T/C: IkB-alpha (Phospho-Ser32/36) (5 μM, 1 hour): 1.11 | Fold Change T/C: IkB-epsilon (Ab-22) (5 μM, 1 hour): 1.30 | Fold Change T/C: Integrin beta-3 (Ab-773) (5 μM, 1 hour): 1.08 | Fold Change T/C: Integrin beta-3 (Phospho-Tyr773) (5 μM, 1 hour): 0.93 | Fold Change T/C: Interferon-alpha/beta receptor alpha chain (Ab-466) (5 μM, 1 hour): 0.90 | Fold Change T/C: JAK2 (Ab-1007) (5 μM, 1 hour): 1.36 | Fold Change T/C: JunB (Phospho-Ser259) (5 μM, 1 hour): 0.79 | Fold Change T/C: LCK (Ab-393) (5 μM, 1 hour): 1.67 | Fold Change T/C: LKB1 (Ab-334) (5 μM, 1 hour): 0.94 | Fold Change T/C: LYN (Ab-507) (5 μM, 1 hour): 0.58 | Fold Change T/C: LYN (Phospho-Tyr507) (5 μM, 1 hour): 1.06 | Fold Change T/C: Lamin A/C (Ab-392) (5 μM, 1 hour): 1.84 | Fold Change T/C: Lamin A/C (Phospho-Ser392) (5 μM, 1 hour): 0.80 | Fold Change T/C: MDM2 (Ab-166) (5 μM, 1 hour): 1.49 | Fold Change T/C: MEK1 (Ab-291) (5 μM, 1 hour): 0.77 | Fold Change T/C: MEK1 (Phospho-Ser217) (5 μM, 1 hour): 0.62 | Fold Change T/C: MITF (Ab-73) (5 μM, 1 hour): 1.38 | Fold Change T/C: MKK4/SEK1 (Ab-80) (5 μM, 1 hour): 1.10 | Fold Change T/C: MSK1 (Ab-360) (5 μM, 1 hour): 0.69 | Fold Change T/C: Myc (Ab-58) (5 μM, 1 hour): 1.09 | Fold Change T/C: NFkB-p65 (Ab-529) (5 μM, 1 hour): 1.14 | Fold Change T/C: NFkB-p65 (Phospho-Ser311) (5 μM, 1 hour): 1.00 | Fold Change T/C: NFkB-p65 (Phospho-Ser529) (5 μM, 1 hour): 0.82 | Fold Change T/C: NFkB-p100/p52 (Ab-865) (5 μM, 1 hour): 0.76 | Fold Change T/C: NFkB-p100/p52 (Phospho-Ser865) (5 μM, 1 hour): 0.88 | Fold Change T/C: NFkB-p105/p50 (Ab-927) (5 μM, 1 hour): 0.85 | Fold Change T/C: P38 MAPK (Ab-182) (5 μM, 1 hour): 1.70 | Fold Change T/C: P38 MAPK (Phospho-Thr180/Tyr182) (5 μM, 1 hour): 0.35 | Fold Change T/C: P70S6K (Ab-229) (5 μM, 1 hour): 1.33 | Fold Change T/C: P70S6K (Phospho-Ser424) (5 μM, 1 hour): 1.00 | Fold Change T/C: P90RSK (Ab-359/363) (5 μM, 1 hour): 1.06 | Fold Change T/C: P90RSK (Phospho-Thr359/Ser363) (5 μM, 1 hour): 0.95 | Fold Change T/C: PDK1 (Ab-241) (5 μM, 1 hour): 1.24 | Fold Change T/C: PDK1 (Phospho-Ser241) (5 μM, 1 hour): 1.14 | Fold Change T/C: PLCG1 (Phospho-Tyr783) (5 μM, 1 hour): 2.25 | Fold Change T/C: PLK1 (Ab-210) (5 μM, 1 hour): 1.49 | Fold Change T/C: PLK1 (Phospho-Thr210) (5 μM, 1 hour): 0.60 | Fold Change T/C: PP1 alpha (Ab-320) (5 μM, 1 hour): 1.15 | Fold Change T/C: PP2A-alpha (Ab-307) (5 μM, 1 hour): 1.23 | Fold Change T/C: PP2A-alpha (Phospho-Tyr307) (5 μM, 1 hour): 0.93
